Data on eleven compounds can be found in PubChem BioAssay (NCI).

Several values for one entry are separate records, joined by “and”; a condition that tells them apart may be missing. Equal entries are not always repeated.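 Interpolation was linear, between the two tested concentrations surrounding the appropriate level; five concentrations were tested over 48 hours in 96-well plates. Here, GI50 denotes the concentration required for 50% inhibition of growth. The concentration for full growth arrest is given as TGI.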

One assay concerns OVCAR-5 ovarian. Put plainly: NCI tumour cell line growth inhibition, 48 h.
For `CC(=O)O[C@H]1CC2C(C3CC[C@H](C(C)CCC(=O)O)[C@]31C)[C@H](OC(C)=O)C[C@@H]1CC3(CC[C@]21C)OOC1(CCC(C)CC1)OO3` (stereo partly specified), the GI50 was 10.6 µM and 4.54 µM; the TGI was 22.7 µM and 16 µM.

For `Cc1cnc(C(=O)NNc2nc3sc4c(c3c(=O)[nH]2)C(C)CCC4)cn1` (stereo unspecified), the GI50 was 2.1 µM and the TGI came out at 15.8 µM.

For `O=C1c2ccccc2C(=O)c2c(NC3CCCCC3)ccc(Nc3ccc(S(=O)(=O)O)cc3)c21`, the TGI is > 100 µM.

`CN(C)c1ccc(-c2cc(-c3ccc(Nc4nc(Nc5ccc(Cl)cc5)nc(Nc5ccc(Cl)cc5)n4)cc3)nc(N)c2C#N)cc1`: the GI50 was > 100 µM and the TGI was > 100 µM.

On to `COCCN(Cc1ccc(F)cc1)c1ccc(CO)c(Cl)c1`, for which the GI50 is 0.431 µM and the TGI was determined as 2.52 µM.

On to `COc1ccc(C(O)c2cc3c(N)c(C(=O)Nc4cccc5ccccc45)sc3nc2C)cc1` (stereo unspecified), for which the GI50 is 0.493 µM and the TGI was > 100 µM.

Take `Cc1cc(Br)c(NC(=O)c2c(-c3c(Cl)cccc3Cl)noc2C)c(Br)c1`: the GI50 is > 100 µM and the TGI was > 100 µM.

For `CC(C)Cc1ccc(C(C)/C=C2\CCC(CN(C)C)C2=O)cc1` (stereo unspecified), the TGI came to 43.1 µM.

`CC(C)[C@@H]1CC[C@]2(CO2)[C@@H]2C(=O)OCC(C(=O)O)=C[C@H]21`: the GI50 was 0.54 µM and the TGI was > 100 µM.

`Cn1c(=O)c2nc3sc4c(n3c2n(C)c1=O)C(=O)c1ccccc1C4=O`: the TGI was > 100 µM.

For the next assay, the system named is RXF 393 renal. Put plainly: NCI tumour cell line growth inhibition, 48 h.
`NC(N)=NCCCC(NCc1c2ccccc2nc2ccccc12)C(=O)O` (stereo unspecified): the TGI was > 100 µM.

For `CC(=O)O[C@H]1CC2C(C3CC[C@H](C(C)CCC(=O)O)[C@]31C)[C@H](OC(C)=O)C[C@@H]1CC3(CC[C@]21C)OOC1(CCC(C)CC1)OO3` (stereo partly specified), the TGI is 27.9 µM and 23.9 µM.

In the case of `Cc1cnc(C(=O)NNc2nc3sc4c(c3c(=O)[nH]2)C(C)CCC4)cn1` (stereo unspecified), the GI50 is 1.76 µM and the TGI worked out at 8.2 µM.

For `O=C1c2ccccc2C(=O)c2c(NC3CCCCC3)ccc(Nc3ccc(S(=O)(=O)O)cc3)c21`, the TGI is > 100 µM.

For the compound `CN(C)c1ccc(-c2cc(-c3ccc(Nc4nc(Nc5ccc(Cl)cc5)nc(Nc5ccc(Cl)cc5)n4)cc3)nc(N)c2C#N)cc1`, the GI50 is 1.96 µM and the TGI worked out at 6.77 µM.

For the compound `COCCN(Cc1ccc(F)cc1)c1ccc(CO)c(Cl)c1`, the GI50 was 4.9 µM and the TGI was > 34.6 µM.

Turning to `COc1ccc(C(O)c2cc3c(N)c(C(=O)Nc4cccc5ccccc45)sc3nc2C)cc1` (stereo unspecified), the GI50 was 3.23 µM and the TGI is > 100 µM.

As for `Cc1cc(Br)c(NC(=O)c2c(-c3c(Cl)cccc3Cl)noc2C)c(Br)c1`, the GI50 is 71.9 µM and the TGI is > 100 µM.

`CC(C)Cc1ccc(C(C)/C=C2\CCC(CN(C)C)C2=O)cc1` (stereo unspecified): the TGI was 35.1 µM.

With `CC(C)[C@@H]1CC[C@]2(CO2)[C@@H]2C(=O)OCC(C(=O)O)=C[C@H]21`, the GI50 is 0.3 µM and the TGI stood at 1.37 µM.

Regarding `Cn1c(=O)c2nc3sc4c(n3c2n(C)c1=O)C(=O)c1ccccc1C4=O`, the TGI is > 55.3 µM.

The next assay relates to SK-MEL-2 melanoma. Put plainly: NCI tumour cell line growth inhibition, 48 h.
As for `NC(N)=NCCCC(NCc1c2ccccc2nc2ccccc12)C(=O)O` (stereo unspecified), the TGI was > 100 µM.

Turning to `CC(=O)O[C@H]1CC2C(C3CC[C@H](C(C)CCC(=O)O)[C@]31C)[C@H](OC(C)=O)C[C@@H]1CC3(CC[C@]21C)OOC1(CCC(C)CC1)OO3` (stereo partly specified), the GI50 is 10.7 µM and 2.02 µM; the TGI is 27.2 µM and 5 µM.

Take `Cc1cnc(C(=O)NNc2nc3sc4c(c3c(=O)[nH]2)C(C)CCC4)cn1` (stereo unspecified): the GI50 is 6.64 µM and the TGI stood at 37.4 µM.

As to `O=C1c2ccccc2C(=O)c2c(NC3CCCCC3)ccc(Nc3ccc(S(=O)(=O)O)cc3)c21`, the TGI was 99.8 µM.

Regarding `CN(C)c1ccc(-c2cc(-c3ccc(Nc4nc(Nc5ccc(Cl)cc5)nc(Nc5ccc(Cl)cc5)n4)cc3)nc(N)c2C#N)cc1`, the GI50 was 10.8 µM and the TGI was found to be 86.7 µM.

`COCCN(Cc1ccc(F)cc1)c1ccc(CO)c(Cl)c1`: the GI50 is 20.6 µM and the TGI was determined as 59.5 µM.

In the case of `COc1ccc(C(O)c2cc3c(N)c(C(=O)Nc4cccc5ccccc45)sc3nc2C)cc1` (stereo unspecified), the GI50 was 0.811 µM and the TGI was > 43.2 µM.

In the case of `Cc1cc(Br)c(NC(=O)c2c(-c3c(Cl)cccc3Cl)noc2C)c(Br)c1`, the GI50 was > 100 µM and the TGI is > 100 µM.

With `CC(C)Cc1ccc(C(C)/C=C2\CCC(CN(C)C)C2=O)cc1` (stereo unspecified), the TGI is 28.6 µM.

Consider `CC(C)[C@@H]1CC[C@]2(CO2)[C@@H]2C(=O)OCC(C(=O)O)=C[C@H]21`, for which the GI50 is 0.208 µM and the TGI was 0.407 µM.

For the compound `Cn1c(=O)c2nc3sc4c(n3c2n(C)c1=O)C(=O)c1ccccc1C4=O`, the TGI is > 75.7 µM.

The next assay concerns SR leukemia. Description: NCI tumour cell line growth inhibition, 48 h.
For `NC(N)=NCCCC(NCc1c2ccccc2nc2ccccc12)C(=O)O` (stereo unspecified), the TGI is > 83.2 µM.

For `CC(=O)O[C@H]1CC2C(C3CC[C@H](C(C)CCC(=O)O)[C@]31C)[C@H](OC(C)=O)C[C@@H]1CC3(CC[C@]21C)OOC1(CCC(C)CC1)OO3` (stereo partly specified), the TGI was 3.82 µM and 3.94 µM.

Take `Cc1cnc(C(=O)NNc2nc3sc4c(c3c(=O)[nH]2)C(C)CCC4)cn1` (stereo unspecified): the GI50 is 0.484 µM and the TGI is 29.2 µM.

For `O=C1c2ccccc2C(=O)c2c(NC3CCCCC3)ccc(Nc3ccc(S(=O)(=O)O)cc3)c21`, the TGI is > 100 µM.

With `CN(C)c1ccc(-c2cc(-c3ccc(Nc4nc(Nc5ccc(Cl)cc5)nc(Nc5ccc(Cl)cc5)n4)cc3)nc(N)c2C#N)cc1`, the GI50 was 1.32 µM and the TGI is 9.83 µM.

With `COCCN(Cc1ccc(F)cc1)c1ccc(CO)c(Cl)c1`, the GI50 was 47.9 µM and the TGI was > 100 µM.

With `COc1ccc(C(O)c2cc3c(N)c(C(=O)Nc4cccc5ccccc45)sc3nc2C)cc1` (stereo unspecified), the GI50 is 0.141 µM.

As to `Cc1cc(Br)c(NC(=O)c2c(-c3c(Cl)cccc3Cl)noc2C)c(Br)c1`, the GI50 is > 100 µM and the TGI is > 100 µM.

`CC(C)Cc1ccc(C(C)/C=C2\CCC(CN(C)C)C2=O)cc1` (stereo unspecified) had a TGI of 9.41 µM.

`CC(C)[C@@H]1CC[C@]2(CO2)[C@@H]2C(=O)OCC(C(=O)O)=C[C@H]21`: the GI50 was 0.552 µM and the TGI turned out to be 4.24 µM.

As for `Cn1c(=O)c2nc3sc4c(n3c2n(C)c1=O)C(=O)c1ccccc1C4=O`, the TGI was > 73 µM.

In the next assay the test system is SW-620 colon. Put plainly: NCI tumour cell line growth inhibition, 48 h.
Take `NC(N)=NCCCC(NCc1c2ccccc2nc2ccccc12)C(=O)O` (stereo unspecified): the TGI was > 100 µM.

Consider `CC(=O)O[C@H]1CC2C(C3CC[C@H](C(C)CCC(=O)O)[C@]31C)[C@H](OC(C)=O)C[C@@H]1CC3(CC[C@]21C)OOC1(CCC(C)CC1)OO3` (stereo partly specified), for which the GI50 is 7.42 µM and 3.55 µM; the TGI is 22.2 µM and 16 µM.

Turning to `Cc1cnc(C(=O)NNc2nc3sc4c(c3c(=O)[nH]2)C(C)CCC4)cn1` (stereo unspecified), the GI50 is 2.62 µM and the TGI is 79.2 µM.

With `O=C1c2ccccc2C(=O)c2c(NC3CCCCC3)ccc(Nc3ccc(S(=O)(=O)O)cc3)c21`, the TGI was > 100 µM.

Regarding `CN(C)c1ccc(-c2cc(-c3ccc(Nc4nc(Nc5ccc(Cl)cc5)nc(Nc5ccc(Cl)cc5)n4)cc3)nc(N)c2C#N)cc1`, the GI50 is 5.6 µM and the TGI came out at 22.7 µM.

With `COCCN(Cc1ccc(F)cc1)c1ccc(CO)c(Cl)c1`, the GI50 was 7.29 µM and the TGI was > 100 µM.

As to `COc1ccc(C(O)c2cc3c(N)c(C(=O)Nc4cccc5ccccc45)sc3nc2C)cc1` (stereo unspecified), the GI50 was 0.284 µM and the TGI is > 100 µM.

Regarding `Cc1cc(Br)c(NC(=O)c2c(-c3c(Cl)cccc3Cl)noc2C)c(Br)c1`, the GI50 was > 100 µM and the TGI is > 100 µM.

In turn, `CC(C)Cc1ccc(C(C)/C=C2\CCC(CN(C)C)C2=O)cc1` (stereo unspecified) returned a TGI of 17.4 µM.

Turning to `CC(C)[C@@H]1CC[C@]2(CO2)[C@@H]2C(=O)OCC(C(=O)O)=C[C@H]21`, the GI50 is 0.334 µM and the TGI is > 100 µM.

For `Cn1c(=O)c2nc3sc4c(n3c2n(C)c1=O)C(=O)c1ccccc1C4=O`, the TGI is > 81.9 µM.
